From patent US11958861B2, “Spirocyclic lactams as JAK2 V617F inhibitors” (Incyte Corporation, priority 2021, dated 2024)
Structures can show the parent of a compound that is named as a salt.

Legend:
[1] = molecular target: T1, pseudo-kinase domain (JH2, amino-acids 536-812) of human V617F mutant JAK2 (Homo sapiens, UniProt O60674, F794H/V617F/W659A/W777A); experiment: JAK2 LanthaScreen JH2-V617F Binding Assay; conditions: 1 hour at 25° C.
T1 construct: pseudo-kinase domain (JH2, amino-acids 536-812 with 3 surface mutations W659A, W777A, F794H); purchased BPS Bioscience 79498; host or cells: baculovirus expression system
T1 sequence (O60674 536-812 V617F/W659A/W777A/F794H): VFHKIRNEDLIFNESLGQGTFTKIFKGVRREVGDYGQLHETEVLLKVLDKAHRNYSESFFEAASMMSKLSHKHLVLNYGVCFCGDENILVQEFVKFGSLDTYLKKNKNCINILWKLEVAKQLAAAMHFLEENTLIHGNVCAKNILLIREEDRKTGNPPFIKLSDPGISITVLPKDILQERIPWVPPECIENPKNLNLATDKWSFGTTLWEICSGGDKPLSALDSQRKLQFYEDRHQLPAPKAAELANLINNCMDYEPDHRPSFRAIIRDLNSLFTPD
Procedure: Example C. JAK2 LanthaScreen JH2-V617F Binding Assay
(§1) JAK2 JH2-V617F binding assay utilizes pseudo-kinase domain (JH2, amino-acids 536-812 with 3 surface mutations W659A, W777A, F794H) of human V617F mutant JAK2 expressed as C-terminal His-Avi-tagged, biotinylated protein in a baculovirus expression system (BPS Bioscience, Catalog #79498). The assay was conducted in black 384-well polystyrene plates in a final reaction volume of 20 μL. JAK2 JH2-V617F (0.26 nM) was incubated with compounds (100 nL serially diluted in DMSO) in the presence of 50 nM Fluorescent JAK2-JH2 Tracer (MedChem Express Catalog #HY-102055) and 0.25 nM Streptavidin-Tb cryptate (Cisbio Part #610SATLB) in assay buffer (50 mM Tris, pH=7.5, 10 mM MgCl2, 0.01% Brij-35, 0.1% BSA, 1 mM EGTA, 5% Glycerol and 5 mM DTT). Non-specific binding was accessed in the presence of 2 mM ATP. After incubation for 1 hour at 25° C., LanthaScreen signals were read on a PHERAstar FS plate reader (BMG LABTECH). Data was analyzed with IDBS XLfit and GraphPad Prism 5.0 software using a four parameter dose response curve to determine IC50 for each compound.

[2] = molecular target: T2, pseudo-kinase domain (JH2, amino-acids 536-812) of human Wild Type JAK2 (Homo sapiens, UniProt O60674, F794H/W659A/W777A); experiment: JAK2 LanthaScreen JH2-WT Binding Assay; conditions: 1 hour at 25° C.
T2 construct: pseudo-kinase domain (JH2, amino-acids 536-812 with 3 surface mutations W659A, W777A, F794H); purchased BPS Bioscience 79463; host or cells: baculovirus expression system
T2 sequence (O60674 536-812 W659A/W777A/F794H): as the sequence (O60674 536-812 V617F/W659A/W777A/F794H) above, with F82V counted along it
Procedure: Example B. JAK2 LanthaScreen JH2-WT Binding Assay
as §1, with “JH2-WT” for “JH2-V617F”, “Wild Type” for “V617F mutant”, “#79463).” for “#79498).”, “JH2-WT (0.145” for “JH2-V617F (0.26”

[3] = molecular target: T3, catalytic domain (JH1, amino acids 826-1132) of human JAK2 (Homo sapiens, UniProt O60674); experiment: JAK2 LanthaScreen JH1 Binding Assay; conditions: 2 hours at 25° C.
T3 construct: catalytic domain (JH1, amino acids 826-1132) of human JAK2; purchased Carna Biosciences 08-445-20N; host or cells: baculovirus expression system
T3 sequence (O60674 826-1132): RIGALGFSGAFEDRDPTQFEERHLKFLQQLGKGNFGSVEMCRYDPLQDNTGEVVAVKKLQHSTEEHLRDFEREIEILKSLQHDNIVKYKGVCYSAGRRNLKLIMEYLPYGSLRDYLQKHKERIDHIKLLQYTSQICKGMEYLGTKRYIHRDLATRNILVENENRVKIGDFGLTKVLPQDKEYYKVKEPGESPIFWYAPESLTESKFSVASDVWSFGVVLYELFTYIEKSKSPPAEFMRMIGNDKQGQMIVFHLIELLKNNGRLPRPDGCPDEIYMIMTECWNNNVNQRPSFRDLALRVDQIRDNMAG
Procedure: Example A. JAK2 LanthaScreen JH1 Binding Assay
JAK2 JH1 binding assay utilizes catalytic domain (JH1, amino acids 826-1132) of human JAK2 expressed as N-terminal FLAG-tagged, biotinylated protein in a baculovirus expression system (Carna Biosciences, Product #08-445-20N). The assay was conducted in black 384-well polystyrene plates in a final reaction volume of 20 μL. JAK2 JH1 (1.5 nM) was incubated with compounds (100 nL serially diluted in DMSO) in the presence of 50 nM Fluorescent JAK2-JH1 Tracer and 0.5 nM Streptavidin-Tb cryptate (Cisbio Part #610SATLB) in assay buffer (50 mM Tris, pH=7.5, 10 mM MgCl2, 0.01% Brij-35, 0.1% BSA, 1 mM EGTA, 5% Glycerol and 5 mM DTT). Non-specific binding was accessed in the presence of 2 mM ATP. After incubation for 2 hours at 25° C., LanthaScreen signals were read on a PHERAstar FS plate reader (BMG LABTECH). Data was analyzed with IDBS XLfit and GraphPad Prism 5.0 software using a four parameter dose response curve to determine IC50 for each compound.

[4] = molecular target: T4, catalytic domain (JH1, amino acids 808-1132) of human JAK2 (Homo sapiens, UniProt O60674); experiment: JAK2 HTRF Enzyme Activity Assay; format: biochemical; conditions: ATP 30 μM, read-out: ENZ 30UMATP
T4 construct: catalytic domain (JH1, amino acids 808-1132) of human JAK2; His (N); purchased BPS Bioscience 40450; host or cells: baculovirus expression system
T4 sequence (O60674 808-1132): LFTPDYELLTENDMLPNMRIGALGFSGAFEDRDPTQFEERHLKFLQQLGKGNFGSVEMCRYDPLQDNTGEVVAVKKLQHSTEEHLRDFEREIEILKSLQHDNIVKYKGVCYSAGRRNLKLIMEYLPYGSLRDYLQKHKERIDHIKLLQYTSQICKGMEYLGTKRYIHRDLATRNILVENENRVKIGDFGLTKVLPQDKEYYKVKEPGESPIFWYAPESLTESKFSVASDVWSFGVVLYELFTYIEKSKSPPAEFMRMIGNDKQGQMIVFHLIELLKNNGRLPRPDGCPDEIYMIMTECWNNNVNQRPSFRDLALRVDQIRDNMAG
Procedure: Example D. JAK2 HTRF Enzyme Activity Assay
JAK2 enzyme activity assays utilize catalytic domain (JH1, amino acids 808-1132) of human JAK2 expressed as N-terminal His-tagged protein in a baculovirus expression system (BPS Bioscience, Catalog #40450). The assays was conducted in black 384-well polystyrene plates in a final reaction volume of 20 μL. JAK2 (0.015 nM) was incubated with compounds (100 nL serially diluted in DMSO) in the presence of ATP (30 μM or 1 mM) and 500 nM Biotin-labeled […] (SEQ ID NO.: 1) peptide (BioSource International, custom synthesis) in assay buffer (50 mM Tris, pH=7.5, 10 mM MgCl2, 0.01% Brij-35, 0.1% BSA, 1 mM EGTA, 5% Glycerol and 5 mM DTT) for 60 minutes at 25° C. The reactions were stopped by the addition of 10 μL of detection buffer (50 mM Tris, pH 7.8, 0.5 mg/mL BSA, 150 mM NaCl), supplemented with EDTA, LANCE Eu-W1024 anti-phosphotyrosine (PY20), (PerkinElmer, Catalog #AD0067) and Streptavidin SureLight APC (PerkinElmer Catalog #CR130-100), for a final concentration of 15 mM, 1.5 nM and 75 nM, respectively. HTRF signals were read after 30 minutes incubation at room temperature on a PHERAstar FS plate reader (BMG LABTECH). Data was analyzed with IDBS XLfit and GraphPad Prism 5.0 software using a four parameter dose response curve to determine IC50 for each compound.

Compound	IC50 [1]	IC50 [2]	IC50 [3]	IC50 [4]
C=Cc1c(-c2cnn(C)c2)[nH]c2ncc3c(c12)C1(CCN(c2ccncn2)CC1)C(=O)N3C [Example 18, 6-Methyl-2-(1-methyl-1H-pyrazol-4-yl)-1′-(pyrimidin-4-yl)-1-vinyl-3,6-dihydro-7H-spiro[dipyrrolo[2,3-b:3′,2′-d]pyridine-8,4′-piperidin]-7-one, trifluoroacetate salt]	1.25 to 2.5 µM	0.5 to 1.25 µM	> 2.5 µM	> 2.5 µM
O=C(O)C(F)(F)F.[2H]C([2H])([2H])n1ccc(-c2[nH]c3ncc4c(c3c2-c2ccc3c(cnn3C([2H])([2H])[2H])c2)C2(CC3(CCN(C(=O)CCC)CC3)C2)C(=O)N4C)c1 [Example 102, 1″-Butyryl-6-methyl-1-(1-(methyl-d3)-1H-indazol-5-yl)-2-(1-(methyl-d3)-1H-pyrrol-3-yl)-3,6-dihydro-7H-dispiro[dipyrrolo[2,3-b:3′,2′-d]pyridine-8,1′-cyclobutane-3′,4″-piperidin]-7-one, trifluoroacetate salt]	≤ 0.1 µM	≤ 0.1 µM	> 2.5 µM	–
CN1C(=O)C2(CCN(C3(CC#N)CCCC3)CC2)c2c1cnc1[nH]c(-c3cnn(C)c3)c(-c3ccc4c(cnn4C)c3)c21 [Example 73, 2-(1-(6-Methyl-1-(1-methyl-1H-indazol-5-yl)-2-(1-methyl-1H-pyrazol-4-yl)-7-oxo-6,7-dihydro-3H-spiro[dipyrrolo[2,3-b:3′,2′-d]pyridine-8,4′-piperidin]-1′-yl)cyclopentyl)acetonitrile, trifluoroacetate salt]	≤ 0.1 µM	≤ 0.1 µM	0.1 to 0.5 µM	0.1 to 0.5 µM
CN1C(=O)C2(CCN(c3ccncn3)CC2)c2c1cnc1[nH]c(-c3ccc(CN4CCC(S(C)(=O)=O)CC4)cc3)c(-c3ccccc3)c21 [Example 15, 6-Methyl-2-(4-((4-(methylsulfonyl)piperidin-1-yl)methyl)phenyl)-1-phenyl-1′-(pyrimidin-4-yl)-3,6-dihydro-7H-spiro[dipyrrolo[2,3-b:3′,2′-d]pyridine-8,4′-piperidin]-7-one, trifluoroacetate salt]	≤ 0.1 µM	≤ 0.1 µM	> 2.5 µM	> 2.5 µM
CN1C(=O)C2(CCN(c3cnn(C4(CC#N)CCOCC4)c3)CC2)c2c1cnc1[nH]c(-c3cnn(C)c3)c(-c3ccccc3)c21 [Example 6, 2-(4-(4-(6-Methyl-2-(1-methyl-1H-pyrazol-4-yl)-7-oxo-1-phenyl-6,7-dihydro-3H-spiro[dipyrrolo[2,3-b:3′,2′-d]pyridine-8,4′-piperidin]-1′-yl)-1H-pyrazol-1-yl)tetrahydro-2H-pyran-4-yl)acetonitrile trifluoroacetate salt]	≤ 0.1 µM	≤ 0.1 µM	> 2.5 µM	> 2.5 µM
O=C(O)C(F)(F)F.[2H]C([2H])([2H])n1ccc(-c2[nH]c3ncc4c(c3c2-c2ccc3c(cnn3C)c2)C2(CC3(CCN(C(=O)CCC)CC3)C2)C(=O)N4C)c1 [Example 101, 1″-Butyryl-6-methyl-1-(1-methyl-1H-indazol-5-yl)-2-(1-(methyl-d3)-1H-pyrrol-3-yl)-3,6-dihydro-7H-dispiro[dipyrrolo[2,3-b:3′,2′-d]pyridine-8,1′-cyclobutane-3′,4″-piperidin]-7-one, trifluoroacetate salt]	≤ 0.1 µM	≤ 0.1 µM	1.25 to 2.5 µM	–
1-(Ethylsulfonyl)-2″-(3-methoxy-1-methyl-1H-pyrazol-4-yl)-6″-methyl-1″-(1-(methyl-d3)-1H-indazol-5-yl)-3″,6″-dihydro-7″H-dispiro[azetidine-3,1′-cyclobutane-3′,8″-dipyrrolo[2,3-b:3′,2′-d]pyridin]-7″-one, trifluoroacetate salt [Example 99]	≤ 0.1 µM	≤ 0.1 µM	> 2.5 µM	–
[2H]C([2H])([2H])n1ncc2cc(-c3c(-c4cnn(C)c4)[nH]c4ncc5c(c34)[C@@]3(CC[C@H](NC(=O)C4(CC(N)=O)CCC4)C3)C(=O)N5C)ccc21 (racemic) [Example 100, trifluoroacetate salt]	0.5 to 1.25 µM	0.5 to 1.25 µM	> 2.5 µM	–
O=C(O)C(F)(F)F.[2H]C([2H])([2H])n1ncc2cc(-c3c(-c4cnn5c4OCCC5)[nH]c4ncc5c(c34)C3(CC4(CN(S(=O)(=O)CC)C4)C3)C(=O)N5C)ccc21 [Example 98, 2″-(6,7-Dihydro-5H-pyrazolo[5,1-b][1,3]oxazin-3-yl)-1-(ethylsulfonyl)-6″-methyl-1″-(1-(methyl-d3)-1H-indazol-5-yl)-3″,6″-dihydro-7″H-dispiro[azetidine-3,1′-cyclobutane-3′,8″-dipyrrolo[2,3-b:3′,2′-d]pyridin]-7″-one, trifluoroacetate salt]	≤ 0.1 µM	≤ 0.1 µM	> 2.5 µM	–
CO[C@H]1CC[C@@](CC#N)(N2CCC3(CC2)C(=O)N(C)c2cnc4[nH]c(-c5cnn(C)c5)c(-c5ccc6c(cnn6C)c5)c4c23)CC1 (single isomer, unassigned) [Example 75b, 2-(4-Methoxy-1-(6-methyl-1-(1-methyl-1H-indazol-5-yl)-2-(1-methyl-1H-pyrazol-4-yl)-7-oxo-6,7-dihydro-3H-spiro[dipyrrolo[2,3-b:3′,2′-d]pyridine-8,4′-piperidin]-1′-yl)cyclohexyl)acetonitrile]	≤ 0.1 µM	–	0.5 to 1.25 µM	0.5 to 1.25 µM
